Where a name gives a salt, the structure may show the parent alone.
Legend:
[1] = tested on: catalepsy; experiment: Induction of catalepsy; format: in vivo, Male CD rats; details: rats, oral; Table III discussion
Description: Male CD rats (Charles River) weighing 250-300 g were treated with test drugs and standards by the oral route and tested for the presence of catalepsy 30 minute, 60 minute, and 90 minute after treatment. To test for catalepsy, each rat is placed with its front paws over a 10 cm high horizontal bar. The intensity of catalepsy is measured by the length of time it takes the animal to move both forelegs to the table. A time of 20 seconds is considered maximal catalepsy.

[2] = tested on: PCP-induced turning behavior; experiment: PCP-induced turning behavior in rats; format: in vivo, Male Sprague-Dawley rats; details: p.o., Table III discussion
Description: Male Sprague-Dawley rats (CD/CR, Charles River), weighing 190-290 g, were used for surgery. In order to spare […] neurons, rats were injected with 25 mg/kg imipramine i.p. 30 minutes before surgery. The rats were anesthetized with a 1:1.2 ratio mixture of Xylazine:Ketamine given 0.1 mL/100 g body weight i.m. A Ringers-Wydaze (100:0.01) solution was given to prevent dehydration. Dopamine was depleted in the right striatum by injecting the neurotoxin 6-hydroxydopamine (6-OHDA) into the substantia nigra of the right cerebral hemisphere. Five mg of 6-OHDA was dissolved in 5 mL of a 0.04% ascorbic acid solution which had been deoxygenated with nitrogen. Five μL of the 6-OHDA solution was injected into the substantia nigra through a 26 gauge needle over a five minute period. […]
Rotation rate and direction were determined with Coulbourn Instruments Rotometry Monitors. Clockwise and counter clockwise rotations were recorded at 30 and 60 minute intervals. […]
The data were analyzed with an analysis of variance statistical test and individual comparisons of each dose of test drug to control were made with Dunnett's multiple range test. The ED50 was calculated with a Litchfield and Wilcoxon test using percent of control values.

[3] = tested on: isolation-induced aggressive behavior; experiment: Isolation-Induced Aggression in Mice; format: in vivo, Male Balb/c mice; details: oral, Table II discussion
Description: Male Balb/c mice (Charles River) were used. […] Isolated mice failing to consistently attack an intruder were eliminated from the colony. Drug testing was carried out by treating the isolated mice with test drugs or standards. Fifteen minutes after dosing with test drugs by the oral route, one isolated mouse was removed from its home cage and placed in the home cage of another isolate. Scoring was a yes or no response for each pair. A maximum of 3 minutes was allowed for an attack and the pair was separated immediately upon an attack. Selection of home cage and intruder mice was randomized for each test. Mice were treated and tested twice a week with at least a 2 day washout period between treatments.

Row | Structure (SMILES) | producing catalepsy, in words [1] | inhibiting PCP-induced turning behavior, in words [2] | inhibiting the isolation-induced aggressive behavior, in words [3]
1 | O=C(CC1CCN(CC2CC2)CC1)c1ccc(F)cc1 [Example 504, 1-(Cyclopropylmethyl)-4-2'-(4"-Fluorophenyl)-2-oxoethyl)-piperidine, hydrobromide salt] | does not produce catalepsy | potent activity | –
2 | Fc1ccc(OCC2CCN(CC3CC3)CC2)cc1 [Example 1, 1-(Cyclopropylmethyl)-4-(4-fluorophenoxymethyl)piperidine] | – | – | potent activities
3 | O=C(CCCN1CCC(O)(c2ccc(Cl)cc2)CC1)c1ccc(F)cc1 [Haloperidol] | very potent in producing catalepsy | potent activity | potent activities
